The subject of the assay is CD206+macrophages (MOs). In words: CD206 targeting assay in monocyte-derived CD206+ macrophages (uptake, killing, apoptosis). The format is cell-based. To be noted: FIG. 17.

Each structure is given as a SMILES string.

Experimental: CD206 targeting assays were conducted using both in vitro monocyte-derived CD206+macrophages (MOs) and ex vivo fresh Kaposi Sarcoma (KS) tumor tissue (provided by the AIDS and Cancer Specimen Resource [ACSR]). Tilmanocept-Cy 3 with/without a chemo-therapeutic agent (CTA) attached (tilmanocept-Cy3-CTA or tilmanocept-Cy3) interactions with cellular and tumor targets were tracked by flow cytometry and immuno-histochemistry to evaluate Cy3-tilmanocept uptake and targeting capability for delivery of drug into KS tumor cells and TAMs.

Take `COc1cccc2c1C(=O)c1c(O)c3c(c(O)c1C2=O)C[C@@](O)(C(=O)CO)C[C@@H]3O[C@H]1C[C@H](N)[C@H](O)[C@H](C)O1` [Docorubicin, doxorubicin]: for the setting “Annexin levels”, the “toxicity to CD206 expressing macrophages” value is “no toxicity”. The “effect on cells (apoptosis, cell loss)” value (compared with tilmanocept-Cy3-CTA) was “less effect”.

The record behind these values is patent US20220062448A1 (priority 2015, published 2022).
